# From patent US8952024B2, “Herbicidal pyrimidone derivatives” (E I du Pont de Nemours and Company, priority 2009, dated 2015)
# System: barnyardgrass (Echinochloa crus-galli)
# Assay: Test A pre-/postemergence plant response
# Assay type: in vivo
# Details: Postemergence, 125 g ai/ha; 0 to 100 scale where 0 is no effect and 100 is complete control
# In short: (§1)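 Pre: directed soil spray on seeded loam/sand blend. Post: same formulation (non-phytotoxic solvent + surfactant) on 2–10 cm plants, 1–2 leaf stage. Greenhouse ~10 d; visual injury score 0–100 vs untreated.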
row,SMILES,"Plant response rating, Barnyardgrass"
1,Cc1cccc(-c2ncc(C(=O)C3=C(O)CCCC3=O)c(=O)n2-c2ccccc2C)c1 [Compound 210],40

# Same assay, conditions: Postemergence, 500 g ai/ha; visual injury, 0 to 100 scale (0 no effect, 100 complete control), approx. ten days
row,SMILES,Barnyardgrass plant response rating
1,Cc1cccc(-c2ncc(C(=O)C3=C(O)CCCC3=O)c(=O)n2-c2ccccc2C)c1 [Compound 210],90

# Same assay, conditions: Preemergence, 125 g ai/ha; 0 to 100 scale, 0 = no effect, 100 = complete control
row,SMILES,"Plant response rating, Barnyardgrass"
1,Cc1cccc(-c2ncc(C(=O)C3=C(O)CCCC3=O)c(=O)n2-c2ccccc2C)c1 [Compound 210],10

# Same assay, conditions: Preemergence, 500 g ai/ha; 0 to 100 scale, 0 = no effect, 100 = complete control
row,SMILES,"Plant response rating, Barnyardgrass"
1,Cc1cccc(-c2ncc(C(=O)C3=C(O)CCCC3=O)c(=O)n2-c2ccccc2C)c1 [Compound 210],70

# System: corn (Zea mays)
# Assay: Test A pre-/postemergence plant response
# Assay type: in vivo
# Details: Postemergence, 125 g ai/ha; 0 to 100 scale where 0 is no effect and 100 is complete control
# In short: as §1
row,SMILES,"Plant response rating, Corn"
1,Cc1cccc(-c2ncc(C(=O)C3=C(O)CCCC3=O)c(=O)n2-c2ccccc2C)c1 [Compound 210],0

# Same assay, conditions: Postemergence, 500 g ai/ha; visual injury, 0 to 100 scale (0 no effect, 100 complete control), approx. ten days
row,SMILES,Corn plant response rating
1,Cc1cccc(-c2ncc(C(=O)C3=C(O)CCCC3=O)c(=O)n2-c2ccccc2C)c1 [Compound 210],0

# Same assay, conditions: Preemergence, 125 g ai/ha; 0 to 100 scale, 0 = no effect, 100 = complete control
row,SMILES,"Plant response rating, Corn"
1,Cc1cccc(-c2ncc(C(=O)C3=C(O)CCCC3=O)c(=O)n2-c2ccccc2C)c1 [Compound 210],0

# Same assay, conditions: Preemergence, 500 g ai/ha; 0 to 100 scale, 0 = no effect, 100 = complete control
row,SMILES,"Plant response rating, Corn"
1,Cc1cccc(-c2ncc(C(=O)C3=C(O)CCCC3=O)c(=O)n2-c2ccccc2C)c1 [Compound 210],0

# System: giant foxtail (Setaria faberii)
# Assay: Test A pre-/postemergence plant response
# Assay type: in vivo
# Details: Postemergence, 125 g ai/ha; 0 to 100 scale where 0 is no effect and 100 is complete control
# In short: as §1
row,SMILES,"Plant response rating, Foxtail, Giant"
1,Cc1cccc(-c2ncc(C(=O)C3=C(O)CCCC3=O)c(=O)n2-c2ccccc2C)c1 [Compound 210],10

# Same assay, conditions: Postemergence, 500 g ai/ha; visual injury, 0 to 100 scale (0 no effect, 100 complete control), approx. ten days
row,SMILES,"Foxtail, Giant plant response rating"
1,Cc1cccc(-c2ncc(C(=O)C3=C(O)CCCC3=O)c(=O)n2-c2ccccc2C)c1 [Compound 210],70

# Same assay, conditions: Preemergence, 125 g ai/ha; 0 to 100 scale, 0 = no effect, 100 = complete control
row,SMILES,"Plant response rating, Foxtail, Giant"
1,Cc1cccc(-c2ncc(C(=O)C3=C(O)CCCC3=O)c(=O)n2-c2ccccc2C)c1 [Compound 210],20

# Same assay, conditions: Preemergence, 500 g ai/ha; 0 to 100 scale, 0 = no effect, 100 = complete control
row,SMILES,"Plant response rating, Foxtail, Giant"
1,Cc1cccc(-c2ncc(C(=O)C3=C(O)CCCC3=O)c(=O)n2-c2ccccc2C)c1 [Compound 210],90

# System: large crabgrass (Digitaria sanguinalis)
# Assay: Test A pre-/postemergence plant response
# Assay type: in vivo
# Details: Postemergence, 125 g ai/ha; 0 to 100 scale where 0 is no effect and 100 is complete control
# In short: as §1
row,SMILES,"Plant response rating, Crabgrass, Large"
1,Cc1cccc(-c2ncc(C(=O)C3=C(O)CCCC3=O)c(=O)n2-c2ccccc2C)c1 [Compound 210],10

# Same assay, conditions: Postemergence, 500 g ai/ha; visual injury, 0 to 100 scale (0 no effect, 100 complete control), approx. ten days
row,SMILES,"Crabgrass, Large plant response rating"
1,Cc1cccc(-c2ncc(C(=O)C3=C(O)CCCC3=O)c(=O)n2-c2ccccc2C)c1 [Compound 210],30

# Same assay, conditions: Preemergence, 125 g ai/ha; 0 to 100 scale, 0 = no effect, 100 = complete control
row,SMILES,"Plant response rating, Crabgrass, Large"
1,Cc1cccc(-c2ncc(C(=O)C3=C(O)CCCC3=O)c(=O)n2-c2ccccc2C)c1 [Compound 210],10

# Same assay, conditions: Preemergence, 500 g ai/ha; 0 to 100 scale, 0 = no effect, 100 = complete control
row,SMILES,"Plant response rating, Crabgrass, Large"
1,Cc1cccc(-c2ncc(C(=O)C3=C(O)CCCC3=O)c(=O)n2-c2ccccc2C)c1 [Compound 210],50

# System: morningglory (Ipomoea spp.)
# Assay: Test A pre-/postemergence plant response
# Assay type: in vivo
# Details: Postemergence, 125 g ai/ha; 0 to 100 scale where 0 is no effect and 100 is complete control
# In short: as §1
row,SMILES,"Plant response rating, Morningglory"
1,Cc1cccc(-c2ncc(C(=O)C3=C(O)CCCC3=O)c(=O)n2-c2ccccc2C)c1 [Compound 210],50

# Same assay, conditions: Postemergence, 500 g ai/ha; visual injury, 0 to 100 scale (0 no effect, 100 complete control), approx. ten days
row,SMILES,Morningglory plant response rating
1,Cc1cccc(-c2ncc(C(=O)C3=C(O)CCCC3=O)c(=O)n2-c2ccccc2C)c1 [Compound 210],100

# Same assay, conditions: Preemergence, 125 g ai/ha; 0 to 100 scale, 0 = no effect, 100 = complete control
row,SMILES,"Plant response rating, Morningglory"
1,Cc1cccc(-c2ncc(C(=O)C3=C(O)CCCC3=O)c(=O)n2-c2ccccc2C)c1 [Compound 210],0

# Same assay, conditions: Preemergence, 500 g ai/ha; 0 to 100 scale, 0 = no effect, 100 = complete control
row,SMILES,"Plant response rating, Morningglory"
1,Cc1cccc(-c2ncc(C(=O)C3=C(O)CCCC3=O)c(=O)n2-c2ccccc2C)c1 [Compound 210],50

# System: pigweed (Amaranthus retroflexus)
# Assay: Test A pre-/postemergence plant response
# Assay type: in vivo
# Details: Postemergence, 125 g ai/ha; 0 to 100 scale where 0 is no effect and 100 is complete control
# In short: as §1
row,SMILES,"Plant response rating, Pigweed"
1,Cc1cccc(-c2ncc(C(=O)C3=C(O)CCCC3=O)c(=O)n2-c2ccccc2C)c1 [Compound 210],90

# Same assay, conditions: Postemergence, 500 g ai/ha; visual injury, 0 to 100 scale (0 no effect, 100 complete control), approx. ten days
row,SMILES,Pigweed plant response rating
1,Cc1cccc(-c2ncc(C(=O)C3=C(O)CCCC3=O)c(=O)n2-c2ccccc2C)c1 [Compound 210],100

# Same assay, conditions: Preemergence, 125 g ai/ha; 0 to 100 scale, 0 = no effect, 100 = complete control
row,SMILES,"Plant response rating, Pigweed"
1,Cc1cccc(-c2ncc(C(=O)C3=C(O)CCCC3=O)c(=O)n2-c2ccccc2C)c1 [Compound 210],60

# Same assay, conditions: Preemergence, 500 g ai/ha; 0 to 100 scale, 0 = no effect, 100 = complete control
row,SMILES,"Plant response rating, Pigweed"
1,Cc1cccc(-c2ncc(C(=O)C3=C(O)CCCC3=O)c(=O)n2-c2ccccc2C)c1 [Compound 210],100
